Experimental data as given in publication PMC10452110, “Indole-3-Acetamido-Polyamines as Antimicrobial Agents and Antibiotic Adjuvants” (Biomolecules, 2023).
Converted amounts (≈) assume the structure as drawn. Where two headings read alike, the source gives them in different places.

Key:
[1] = tested on: Pseudomonas aeruginosa (ATCC 27853); test: Intrinsic antimicrobial activity (MIC) against P. aeruginosa; format: cell-based; details: ATCC27853, P. aeruginosa ATCC 27853, mean (n = 3), read-out: MIC P. a
Method: (§1) The susceptibility of bacterial strains Staphylococcus aureus (ATCC 25923), Escherichia coli (ATCC 25922) and Pseudomonas aeruginosa (ATCC 27853) to antibiotics and compounds was determined using previously reported protocols. Additional antimicrobial evaluation against MRSA (ATCC 43300), Klebsiella pneumoniae (ATCC 700603), Acinetobacter baumannii (ATCC 19606), Candida albicans (ATCC 90028) and Cryptococcus neoformans (ATCC 208821) was undertaken at the Community for Open Antimicrobial Drug Discovery at The University of Queensland (Australia) according to their standard protocols, as reported previously.

E. coli ATCC 25922 = test: Enhancement of erythromycin action against E. coli; format: cell-based, Escherichia coli; details: erythromycin at 10.9 µM
Method: (§2) Antibiotic enhancer concentrations were determined using previously reported protocols.

human red blood cells = test: Hemolytic assay; format: cell-based; details: mean (n = 2)
Method: Hemolysis assays were conducted using the protocols previously reported.

[2] = tested on: Escherichia coli (ATCC 25922); test: Intrinsic antimicrobial activity (MIC) against E. coli; format: cell-based; details: ATCC25922, E. coli ATCC 25922, mean (n = 3), read-out: MIC E. c
Method: as §1

P. aeruginosa ATCC 27853 = test: Enhancement of doxycycline action against P. aeruginosa; format: cell-based, Pseudomonas aeruginosa; details: doxycycline at 4.5 µM
Method: as §2

[3] = tested on: Candida albicans (ATCC 90028); test: Intrinsic antifungal activity (MIC) against C. albicans; format: cell-based; details: ATCC90028, C. albicans ATCC 90028, mean (n = 2), read-out: MIC C. a
Method: as §1

Cytotoxicity assay = format: cell-based; details: human; HEK293 cells; mean (n = 2); read-out: Cytotoxicity: concentration of compound at 50% cytotoxicity (IC50)
Method: Cytotoxicity assays were conducted using the protocols previously reported.

MRSA (ATCC 43300) = test: Intrinsic antimicrobial activity (MIC) against MRSA; format: cell-based; details: Staphylococcus aureus, read-out: MIC MRSA
Method: as §1

[4] = tested on: Cryptococcus neoformans (ATCC 208821); test: Intrinsic antifungal activity (MIC) against C. neoformans; format: cell-based; details: ATCC208821, C. neoformans ATCC 208821, mean (n = 2), read-out: MIC C. n
Method: as §1

[5] = tested on: Staphylococcus aureus (ATCC 25923); test: Intrinsic antimicrobial activity (MIC) against S. aureus; format: cell-based; details: ATCC25923, S. aureus ATCC 25923, mean (n = 3), read-out: MIC S. a
Method: as §1

Row | SMILES | MIC [1] [µM] | Eryth/E. c: concentration required to restore erythromycin activity (combination MIC) (E. coli ATCC 25922) [µM] | Hemolysis: concentration of compound at 10% hemolytic activity (HC10) (human red blood cells) [µM] | MIC [2] [µM] | Dox/P. a fold change (ratio between intrinsic MIC of the test compound and combination MIC) (P. aeruginosa ATCC 27853) [fold] | Dox/P. a: concentration required to restore doxycycline activity (combination MIC) (P. aeruginosa ATCC 27853) [µM] | MIC [3] [µM] | IC50 (Cytotoxicity assay) [µM] | MIC (MRSA (ATCC 43300); MRSA ATCC 43300, mean (n = 2)) [µM] | MIC [4] [µM] | MIC [5] [µM] | MIC (MRSA (ATCC 43300)) [µM]
1 | O=C(Cc1c[nH]c2ccccc12)NCCCNCCCCCCNCCCNC(=O)Cc1c[nH]c2ccccc12.O=C(O)C(F)(F)F.O=C(O)C(F)(F)F [Compound 14b, N^1,N^6-Bis(3-(2-(1H-indol-3-yl)acetamido)propyl)hexane-1,6-diaminium 2,2,2-trifluoroacetate] | > 259 | > 259 | >41 | > 129 | > 2 | 129 | > 41 | > 41 | < 0.2 | < 0.2 | 129 | –
2 | Cc1ccc2[nH]cc(CC(=O)NCCCNCCCCCCCCNCCCNC(=O)Cc3c[nH]c4ccc(C)cc34)c2c1.O=C(O)C(F)(F)F.O=C(O)C(F)(F)F [Compound 17d, N^1,N^8-Bis(3-(2-(5-methyl-1H-indol-3-yl)acetamido)propyl)octane-1,8-diaminium 2,2,2-trifluoroacetate] | > 241 | 121 | 0.42 | 241 | > 1 | 241 | 2.41 | > 39 | ≤ 0.3 | ≤ 0.3 | 15.1 | –
3 | O=C(Cc1c[nH]c2c(F)cccc12)NCCCNCCCCCCCNCCCNC(=O)Cc1c[nH]c2c(F)cccc12.O=C(O)C(F)(F)F.O=C(O)C(F)(F)F [Compound 18c, N^1,N^7-Bis(3-(2-(7-fluoro-1H-indol-3-yl)acetamido)propyl)heptane-1,7-diaminium 2,2,2-trifluoroacetate] | > 243 | 243 | 1.94 | > 243 | > 1 | 243 | 38.9 | > 39 | ≤ 0.3 | ≤ 0.3 | 30.4 | –
4 | O=C(Cc1c[nH]c2c(F)cccc12)NCCCNCCCCCCCCNCCCNC(=O)Cc1c[nH]c2c(F)cccc12.O=C(O)C(F)(F)F.O=C(O)C(F)(F)F [Compound 18d, N^1,N^8-Bis(3-(2-(7-fluoro-1H-indol-3-yl)acetamido)propyl)octane-1,8-diaminium 2,2,2-trifluoroacetate] | > 239 | > 239 | >38 | > 239 | 1 | > 239 | > 38 | > 38 | < 0.2 | < 0.2 | 29.9 | –
5 | O=C(Cc1c[nH]c2c(F)cccc12)NCCCNCCCCCCCCCCNCCCNC(=O)Cc1c[nH]c2c(F)cccc12.O=C(O)C(F)(F)F.O=C(O)C(F)(F)F [Compound 18e, N^1,N^10-Bis(3-(2-(7-fluoro-1H-indol-3-yl)acetamido)propyl)decane-1,10-diaminium 2,2,2-trifluoroacetate] | > 231 | 57.8 | 1.49 | 116 | 1 | 231 | 2.31 | > 37 | ≤ 0.29 | ≤ 0.29 | 7.23 | –
6 | COc1cccc2c(CC(=O)NCCCNCCCCCCNCCCNC(=O)Cc3c[nH]c4c(OC)cccc34)c[nH]c12.O=C(O)C(F)(F)F.O=C(O)C(F)(F)F [Compound 19b, N^1,N^6-Bis(3-(2-(7-methoxy-1H-indol-3-yl)acetamido)propyl)hexane-1,6-diaminium 2,2,2-trifluoroacetate] | > 240 | 240 | – | 240 | 1 | > 240 | > 38 | > 38 | < 0.2 | < 0.2 | 30 | –
7 | COc1cccc2c(CC(=O)NCCCNCCCCCCCCCCNCCCNC(=O)Cc3c[nH]c4c(OC)cccc34)c[nH]c12.O=C(O)C(F)(F)F.O=C(O)C(F)(F)F [Compound 19e, N^1,N^10-Bis(3-(2-(7-methoxy-1H-indol-3-yl)acetamido)propyl)decane-1,10-diaminium 2,2,2-trifluoroacetate] | > 225 | 225 | – | > 225 | > 1 | 225 | > 36 | > 36 | < 0.2 | < 0.2 | 28.1 | –
8 | Cc1cccc2c(CC(=O)NCCCNCCCCCCCCNCCCNC(=O)Cc3c[nH]c4c(C)cccc34)c[nH]c12.O=C(O)C(F)(F)F.O=C(O)C(F)(F)F [Compound 20d, N^1,N^8-Bis(3-(2-(7-methyl-1H-indol-3-yl)acetamido)propyl)octane-1,8-diaminium 2,2,2-trifluoroacetate] | > 241 | 241 | – | 241 | 1 | > 241 | 38.6 | > 39 | < 0.2 | < 0.2 | 30.2 | –
9 | O=C(N[C@H](CO)[C@H](O)c1ccc([N+](=O)[O-])cc1)C(Cl)Cl [chloramphenicol, reference compound] | – | – | – | – | – | – | – | – | – | – | 1.5 to 3 (≈ 0.485 to 0.969 µg/mL) | –
10 | OC(Cn1cncn1)(Cn1cncn1)c1ccc(F)cc1F [fluconazole, reference compound] | – | – | – | – | – | – | 0.4 (≈ 0.123 µg/mL) | – | – | 26 (≈ 7.96 µg/mL) | – | –
11 | [H]/N=C(/N)N[C@H]1[C@H](O)[C@@H](O)[C@H](O[C@@H]2O[C@@H](C)[C@](O)(C=O)[C@H]2O[C@@H]2O[C@@H](CO)[C@H](O)[C@@H](O)[C@@H]2NC)[C@@H](N/C(N)=N\[H])[C@@H]1O [streptomycin, reference compound] | 21.5 (≈ 12.5 µg/mL) | – | – | 21.5 (≈ 12.5 µg/mL) | – | – | – | – | – | – | 21.5 (≈ 12.5 µg/mL) | –
12 | CC/C(=C(\c1ccccc1)c1ccc(OCCN(C)C)cc1)c1ccccc1 [tamoxifen, reference compound] | – | – | – | – | – | – | – | 24 | – | – | – | –
13 | CN[C@H](CC(C)C)C(=O)N[C@H]1C(=O)N[C@@H](CC(N)=O)C(=O)N[C@H]2C(=O)N[C@H]3C(=O)N[C@H](C(=O)N[C@H](C(=O)O)c4cc(O)cc(O)c4-c4cc3ccc4O)[C@H](O)c3ccc(c(Cl)c3)Oc3cc2cc(c3O[C@@H]2O[C@H](CO)[C@@H](O)[C@H](O)[C@H]2O[C@H]2C[C@](C)(N)[C@H](O)[C@H](C)O2)Oc2ccc(cc2Cl)[C@H]1O [vancomycin, reference compound] | – | – | – | – | – | – | – | – | – | – | – | 0.7 (≈ 1.01 µg/mL)
